Assay results from article PMC5797166, “A multidrug ABC transporter with a taste for GTP” (Scientific Reports, 2018).

Tests used:
[1] = target: T1, BmrC/BmrD (Bacillus subtilis, UniProt O07549+O07550); assay: fluorescence transport assay, inside-out E. coli membrane vesicles; type: biochemical; conditions: 2 mM ATP or GTP, Walker-A K/A double mutant as control
T1 construct: full-length heterodimer overexpressed in E. coli, inside-out membrane vesicles

[2] = target: T2, PatA/PatB (Streptococcus pneumoniae, UniProt Q8DN70+Q8DN72); assay: coupled NADH oxidation assay, GTPase; type: biochemical; conditions: nanodiscs of S. pneumoniae lipids, 4 mM GTP, 2 mM MgCl2, pH 7.4
T2 construct: gene ABC-NP; models PatA 1-564, PatB 1-603

[3] = test system: Nc1nc2c(ncn2[C@@H]2O[C@H](COP(=O)(O)OP(=O)(O)OP(=O)(O)O)[C@@H](O)[C@H]2O)c(=O)[nH]1; assay: purified protein; type: biochemical, Streptococcus pneumoniae; conditions: proteoliposomes of E. coli lipids, 10 mM MgCl2, pH 8, 37 °C, cooperative fit, nH 1.74

T1 sequence (O07550 whole entry): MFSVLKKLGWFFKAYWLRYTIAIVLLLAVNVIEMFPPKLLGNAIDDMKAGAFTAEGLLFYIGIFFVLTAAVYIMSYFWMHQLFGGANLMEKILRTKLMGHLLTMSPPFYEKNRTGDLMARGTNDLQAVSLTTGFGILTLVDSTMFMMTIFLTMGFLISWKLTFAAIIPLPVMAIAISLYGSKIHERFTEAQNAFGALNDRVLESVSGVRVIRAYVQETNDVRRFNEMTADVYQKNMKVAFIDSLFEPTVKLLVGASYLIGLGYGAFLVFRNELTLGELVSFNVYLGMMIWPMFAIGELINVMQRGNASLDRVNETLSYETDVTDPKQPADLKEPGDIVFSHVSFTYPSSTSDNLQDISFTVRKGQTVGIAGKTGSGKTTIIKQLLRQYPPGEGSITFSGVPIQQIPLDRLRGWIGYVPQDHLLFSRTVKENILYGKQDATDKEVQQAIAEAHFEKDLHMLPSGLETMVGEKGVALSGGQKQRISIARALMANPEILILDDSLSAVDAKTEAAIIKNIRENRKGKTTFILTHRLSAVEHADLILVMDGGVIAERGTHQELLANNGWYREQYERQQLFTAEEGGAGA
T1 sequence (O07549 whole entry): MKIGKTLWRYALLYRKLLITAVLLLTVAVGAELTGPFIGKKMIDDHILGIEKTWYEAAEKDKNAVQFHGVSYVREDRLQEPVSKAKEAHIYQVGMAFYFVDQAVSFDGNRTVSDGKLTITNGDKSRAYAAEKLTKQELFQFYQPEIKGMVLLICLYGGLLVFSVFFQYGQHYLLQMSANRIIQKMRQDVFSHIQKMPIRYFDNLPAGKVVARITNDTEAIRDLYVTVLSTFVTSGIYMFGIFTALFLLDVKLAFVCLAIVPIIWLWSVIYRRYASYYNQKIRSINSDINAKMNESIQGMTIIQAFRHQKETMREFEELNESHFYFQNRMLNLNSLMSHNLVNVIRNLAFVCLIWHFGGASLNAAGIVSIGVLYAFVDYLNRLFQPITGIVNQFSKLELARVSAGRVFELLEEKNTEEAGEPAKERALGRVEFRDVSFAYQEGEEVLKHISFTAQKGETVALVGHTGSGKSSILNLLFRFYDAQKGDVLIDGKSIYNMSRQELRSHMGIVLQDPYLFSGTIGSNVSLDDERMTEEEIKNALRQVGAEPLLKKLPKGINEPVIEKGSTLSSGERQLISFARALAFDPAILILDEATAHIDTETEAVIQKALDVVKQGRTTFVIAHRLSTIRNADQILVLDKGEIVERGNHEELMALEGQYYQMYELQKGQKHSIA
T2 sequence (Q8DN70 entry or part of it): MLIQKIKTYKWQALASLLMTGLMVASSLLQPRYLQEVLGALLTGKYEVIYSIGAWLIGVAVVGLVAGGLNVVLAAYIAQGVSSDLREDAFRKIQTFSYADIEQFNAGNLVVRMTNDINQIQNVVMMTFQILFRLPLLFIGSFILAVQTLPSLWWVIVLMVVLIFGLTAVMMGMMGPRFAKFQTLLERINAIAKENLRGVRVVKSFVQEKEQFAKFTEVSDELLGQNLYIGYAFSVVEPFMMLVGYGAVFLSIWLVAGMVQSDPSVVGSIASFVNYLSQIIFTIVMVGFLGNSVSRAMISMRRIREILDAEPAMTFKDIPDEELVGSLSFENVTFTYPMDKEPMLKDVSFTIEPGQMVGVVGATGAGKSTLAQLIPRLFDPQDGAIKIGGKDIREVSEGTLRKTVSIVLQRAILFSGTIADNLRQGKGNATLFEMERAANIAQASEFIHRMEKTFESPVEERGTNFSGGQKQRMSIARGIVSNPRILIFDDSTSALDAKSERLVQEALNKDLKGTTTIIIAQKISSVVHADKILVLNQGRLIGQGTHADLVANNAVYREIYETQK
T2 sequence (Q8DN72 entry or part of it): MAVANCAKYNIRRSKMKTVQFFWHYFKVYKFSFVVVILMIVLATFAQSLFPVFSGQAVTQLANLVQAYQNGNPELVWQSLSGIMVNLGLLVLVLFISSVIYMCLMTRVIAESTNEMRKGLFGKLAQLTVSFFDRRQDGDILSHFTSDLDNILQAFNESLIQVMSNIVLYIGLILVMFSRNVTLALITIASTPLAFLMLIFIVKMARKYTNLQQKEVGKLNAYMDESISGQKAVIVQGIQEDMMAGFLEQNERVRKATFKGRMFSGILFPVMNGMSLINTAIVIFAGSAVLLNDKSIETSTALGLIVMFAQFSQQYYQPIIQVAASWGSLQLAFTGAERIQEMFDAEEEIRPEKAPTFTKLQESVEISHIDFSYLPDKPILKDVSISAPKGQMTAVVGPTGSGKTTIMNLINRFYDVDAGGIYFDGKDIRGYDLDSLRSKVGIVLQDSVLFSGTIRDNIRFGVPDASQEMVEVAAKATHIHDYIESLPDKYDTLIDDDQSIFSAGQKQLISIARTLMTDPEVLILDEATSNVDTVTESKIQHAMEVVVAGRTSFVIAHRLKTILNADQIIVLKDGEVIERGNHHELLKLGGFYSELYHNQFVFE

CCOc1ccc(-c2nc3ccc(-c4nc5ccc(N6CCN(C)CC6)cc5[nH]4)cc3[nH]2)cc1 [Hoechst 33342, 2′-(4-ethoxyphenyl)-5-(4-methyl-1-piperazinyl)-2,5′-bis-1H-benzimidazole]
fluorescence transport assay, inside-out E. coli membrane vesicles ([1]; 1 µM Hoechst, 2 mM MgCl2, pH 8.0, 25 °C): BmrC/BmrD behaves as a conventional ABC transporter being more active in the presence of ATP

COc1cccc2c1C(=O)c1c(O)c3c(c(O)c1C2=O)C[C@@](O)(C(=O)CO)C[C@@H]3O[C@H]1C[C@H](N)[C@H](O)[C@H](C)O1 [doxorubicin]
fluorescence transport assay, inside-out E. coli membrane vesicles ([1]; 2 µM doxorubicin, 2 mM MgCl2, pH 8.0, 25 and 37 °C): ATP was the preferred energy substrate for BmrC/BmrD at both temperatures

[O]=[V]([OH])([OH])[OH] [orthovanadate]
% inhibition at 4 mM [2]: 94%

PatA/PatB (Streptococcus pneumoniae R6)
Km [3]: 2640 ± 460 µM
